For 1 compound, absorbance coefficient results are on record in patent US6531117B2, “Aqueous dispersion of water-insoluble organic UV filter substances” (BASF Aktiengesellschaft, priority 2000, dated 2003).

The data set can be described thus: UV absorption (absorbance coefficient). Format: physicochemical. Particulars: 314 nm. From the text: Uvinul® T150 is notable for good UV absorption properties and an extremely high absorbance coefficient of >1500 and 314 nm.

As for `CCCCC(CC)COC(=O)c1ccc(Nc2nc(Nc3ccc(C(=O)OCC(CC)CCCC)cc3)nc(Nc3ccc(C(=O)OCC(CC)CCCC)cc3)n2)cc1` (stereo not shown) [Uvinul® T150, 2,4,6-trianilino-p-(carbo-2′-ethylhexyl-1′-oxy)-1,3,5-triazine], the absorbance coefficient was over 1500.
